PMC7504721, “Targeting the Initiator Protease of the Classical Pathway of Complement Using Fragment-Based Drug Discovery” (Molecules, 2020)

Molecular target: T1, C1r-CCP2-SP (Homo sapiens, UniProt P00736)
T1 sequence (P00736 374-463 limits assumed): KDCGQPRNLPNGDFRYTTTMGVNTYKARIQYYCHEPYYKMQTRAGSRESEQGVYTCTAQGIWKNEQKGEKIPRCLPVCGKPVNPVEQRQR
T1 sequence (P00736 464-705 limits assumed): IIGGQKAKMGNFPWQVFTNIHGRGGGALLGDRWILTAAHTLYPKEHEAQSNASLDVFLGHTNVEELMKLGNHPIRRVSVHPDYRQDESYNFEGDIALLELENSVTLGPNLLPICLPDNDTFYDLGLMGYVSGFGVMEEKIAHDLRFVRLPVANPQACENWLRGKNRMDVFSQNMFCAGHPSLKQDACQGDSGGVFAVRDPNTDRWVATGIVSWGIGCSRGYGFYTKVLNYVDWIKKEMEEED
Assay: SPR domain mapping, C1r-CCP2-SP surface
Assay type: binding
Settings: duplicate
Source text: Figure 5 Selectivity and mechanistic analysis of CMP-1611 and CMP-1696. (A) Chemical structure of CMP-1611. (B) Chemical structure of CMP-1696. (C) Dose-dependent inhibition by CMP-1611 and CMP-1696 in a classical pathway-specific ELISA. Data were fit with GraphPad Prism using non-linear regression with a log(inhibitor) vs. response model. […] The CMP-778 inhibitory response could not be fit to a dose-response inhibition model. (D) Complement pathway selectivity of CMP-1611 and CMP-1696. Compounds were assessed for their ability to inhibit activation of complement via the lectin and alternative pathways using single doses of 500 μM compound in triplicate. To ensure only lectin pathway activation, 2% (v/v) C1q-depleted serum (CompTech) was used and mannan was used as the activator. To match serum sources and amounts for this assay, the classical pathway assays were repeated here using serum from CompTech at 2% (v/v) final concentration. Alternative pathway activation assays were performed using 20% (v/v) serum (CompTech), alternative pathway buffers, and C3b detection (see Methods and Materials for details). […] (E) C1r, C1r-CUB1, and C1r-CCP2-SP, were immobilized on an SPR sensor chip and binding responses for 500 μM CMP-1611 and CMP-1696 or 10 μM Futhan were each injected in duplicate over all surfaces. Binding responses were corrected for the molecular weight of each analyte and the immobilization level and molecular weight of each surface ligand. Measures of statistical significance in (D) were obtained by comparison of vehicle control using an unpaired t-test (* p < 0.05). To assess selectivity of CMP-1611 and CMP-1696, we performed pathway-specific ELISA-based inhibition assays. […] However, CMP-1696, but not CMP-1611, blocked lectin pathway activation at a similar level as it did the classical pathway (Figure 5D). To further investigate the divergent selectivity profiles of CMP-1611 and CMP-1696, we first sought to clarify the binding site on C1r for each compound. […] We then injected each compound simultaneously over the three surfaces at 500 μM and measured binding responses. […]

Compound	relative SPR binding response, C1r-CCP2-SP (10 µM Futhan)	relative SPR binding response, C1r-CCP2-SP (500 µM compound)
N=C(N)c1ccc2cc(OC(=O)c3ccc(N=C(N)N)cc3)ccc2c1 [Futhan, reference compound]	bound C1r and C1r-CCP2-SP similarly	
COCc1nc(-c2ccc(OC3CNC3)cc2)no1 [CMP-1696]		high binding
CN(C)c1cc(N2CCCC(N)C2)ncn1 (stereo not drawn) [CMP-1611]		bound weakly
